According to patent US20180360940A1, “LISTERIA-BASED IMMUNOTHERAPY AND METHODS OF USE THEREOF” (priority 2015, published 2018):
Like-named read-outs stand apart in the source and are kept apart here.

What was measured:
TPSA23 tumor = TPSA23 tumor regression study, ADXS31-142 with or without ampicillin; type: in vivo, C57BL/6 male mice; settings: DP ADXS31-142 (PSA 1.0) IP, ampicillin 100 mg/kg IP at 4-hr, 6-hr, 24-hr
Description: FIG. 22A-B Results for ADXS31-142 therapy with our without early ampicillin treatment. TC1 tumor regression (FIG. 22A) and % survival (FIG. 22B).
A tumor regression study was initiated in C57BL/6 male mice using TPSA23 prostate cancer cells to assess the therapeutic efficacy of different Lm treatment with or without ampicillin treatment.
Tumor Inoculation: The tumor model used in this study is the TPSA23 tumor model. TPSA23 cells are cultured in complete medium. Complete medium for TPSA23 cells: 430 ml DMEM with Glucose, 45 ml FBS, 25 ml Nu-Serum IV, 5 ml L-Glutamine, 5 ml Na-bicarbonate, 0.005 mg/ml Bovine Insulin—Insulin stock (2.5 mg/ml) is prepared in acidified water (10 ml water+100 ul glacial acetic acid) (Add to the flask while splitting cells—6.4 uL/8 mLs media, 12.8 uL/16 mLs media, 19.2 uL/24 mLs media, etc.), and 10 nM Dehydroisoandrosterone (DHA)—DHA stock (10 mM) is prepared in ethanol. (Add to the flask while splitting cells—140 uL/70 mLs media, 70 uL/35 mLs media, 35 uL/17.5 mLs media, etc.). Two days prior to implanting tumor cells in mice, TPSA23 cells are sub-cultured in complete media. […] Cells were counted and re-suspended at a concentration of 2×10^6 cells/200 ul in PBS/mouse for injection. […] Tumors are measured twice a week until they reach a size of 12 mm in diameter. Once tumors met sacrifice criteria, mice were euthanized and tumors were excised and measured. […]

[1] = system: PSA-specific and SIINFEKL-specific immunity; assay: PSA- and […]-specific CD8 T cells after PSA-SVN Tag with early antibiotics; type: in vivo, C57BL/6 mice; settings: PSA-SVN Tag IP, spleens day 7
Description: FIGS. 17A-D Results from early time point administration of ampicillin at 2 hours, 4 hours, and 6 hours post-Lm vaccine. % PSA specific CD8 T cells (FIG. 17A), % […] specific CD8 T cells (FIG. 17B), # of PSA specific CD8 cells (FIG. 17C), and # of […] specific CD8 cells (FIG. 17D).
FIGS. 18A-B Splenocytes from early gentamicin treatment at 2 hours, 4 hours, or 6 hours +ampicillin 24 hour chase of LM-PSA-SVN treated mice. % PSA specific CD8 T cells (FIG. 18A) and % […] specific CD8 T cells (FIG. 18B).
An assay was performed to examine the generation of […]-specific and PSA-specific immunity in mice treated with ampicillin or gentamicin/ampicillin and immunized with PSA-SVN Tag. The […]-specific immune response was detected by pentamer staining using the known T cell epitopes for C57BL/6 mice, H-2 Db PSA65-73 ([…]) and H-2 Kb OVA257-264 ([…]).
Prime-Harvest with Ampicillin: On Day 0, all groups were infected with PSA-SVN Tag LM IP, and then ampicillin was administered at 100 mg/kg IP at various time points from hour 2, 4, 6, 24. All Animals (except negative control) were given 1 dose of ampicillin at 24 hours. 7 days after Day 0 infection, mice were sacrificed and spleens were harvested and analyzed for specific T-cell epitopes to H-2 Db PSA65-73 ([…]) and H-2 Kb OVA257-264 ([…]). […]

[2] = 10 mg/mL in sterile H2O, cited from earlier work
TC-1 tumor = TC-1 tumor regression study, ADXS11-001 with or without ampicillin; type: in vivo, C57BL/6 female mice; settings: DP ADXS11-001 (HPV 1.0) IP, ampicillin 100 mg/kg IP at 4-hr, 6-hr, 24-hr
Description: FIG. 20A-B Results for ADXS11-001 therapy with our without early ampicillin treatment. TC1 tumor regression (FIG. 20A) and % survival (FIG. 20B).
A tumor regression study was initiated in C57BL/6 female mice using TC-1 lung epithelial cells to assess the therapeutic efficacy of different Lm treatment with or without ampicillin treatment and whether it alters the tumor microenvironment.
Tumor Inoculation: The tumor model used in this study is the TC-1 tumor model. TC-1 cells are cultured in complete medium. Complete medium for TC-1 cells: 450 ml RPMI 1640, 50 ml 10%FBS, 5 ml NEAA (100 uM), 5 ml L-Glutamine ([…]), and 5 ml Pen/strep (100 U/mL) penicillin+100 ug/mL streptomycin) G418 (400 ug/mL) (added to cells when splitting). Two days prior to implanting tumor cells in mice, TC-1 cells were sub-cultured in complete media. On the day of the experiment (Day 0), cells were trypsinized and washed twice with media. Cells were counted and re-suspended at a concentration of 1×10^5 cells/200 ul in PBS/mouse for injection. Tumor cells were injected subcutaneously in the right flank of each mouse. Tumors were measured twice a week until they reached a size of 12 mm in diameter. Once tumors met sacrifice criteria, mice were euthanized and tumors were excised and measured.
Vaccine/Ampicillin Treatment: On Day 6, when tumors are ˜5mm in size; vaccines and treatments began. […]

CC1(C)S[C@@H]2[C@H](NC(=O)[C@H](N)c3ccccc3)C(=O)N2[C@H]1C(=O)O [ampicillin]
survival, difference between Lm treatment groups with or without ampicillin (TPSA23 tumor): No significant difference | tumor regression, difference between Lm treatment groups with or without ampicillin (TPSA23 tumor): No significant difference | PSA specific and SIINFEKL specific CD8 T cells, difference between groups ([1]; ampicillin 100 mg/kg IP at 2, 4, 6 hours plus 24 hours): No significant difference | solution stability [2]: 3 days | survival, difference between Lm treatment groups with or without ampicillin (TC-1 tumor): No significant difference | tumor regression, difference between Lm treatment groups with or without ampicillin (TC-1 tumor): No significant difference

gentamicin
PSA specific and SIINFEKL specific CD8 T cells, difference between groups ([1]; gentamicin 5 mg/kg IP at 2, 4, 6 hours plus ampicillin 24 hour chase): No significant difference | solution stability ([2]; 2-8 C): months | solution stability ([2]; at 37 C): 5 days
